{
  "source": "patent US8765729B2",
  "about": "“Cancer therapy” (Aeolus Sciences, Inc., priority 2001, dated 2014)",
  "key": {"B16 melanoma tumor": {"test_system": "B16 melanoma tumor", "test": "B16 melanoma tumor growth in mice treated with SOD mimetic", "assay_type": "in vivo", "conditions": "6 mg/kg i.p.", "experimental": "FIGS. 2A-2C. (FIG. 2A) B16 melanoma tumor treated with SOD mimetic. The mimetic was 10113 at a dose of 6 mg/kg given intraperitoneally qd for 5 days. (FIG. 2B) Mammary adenocarcinoma treated with SOD mimetic. 10113 was given intraperitoneally at a dose of 6 mg/kg/day for 16 days. Radiation therapy (RT), 21 Gy, was given on day 8 or 9. (FIG. 2C) Fischer 344 rats with subcutaneously implanted R3230 AC mammary adenocarcinomas received Radiation treatment (21 Gy Day 1), AEOL 10113 (6 mg/kg/day IP Day 1 to 20), the combination Radiation and AEOL 10113 (as above), or Control treatment.\nThe effect of the MnTE-2-PyP (manganese(III) tetrakis(N-ethylpyridinium-2-yl)porphyrin) on tumor growth and radiation response in two tumor models has been tested. […] The effect of the SOD mimetic. MnTE-2-PyP, on tumor growth and radiation response has been tested in a rat model."}, "[1]": {"test_system": "radiation-induced lung injury", "test": "Radiation-induced lung injury in rats (28 Gy right hemithoracic irradiation)", "assay_type": "in vivo", "experimental": "AEOL 10113 was tested (6 mg/kg/day for 5 days beginning on the day of irradiation) in a rat model of radiation-induced lung injury as assessed by breathing rate (animals with lung injury have a more rapid respiration rate), and chemical and microscopic measures of fibrosis. During the follow-up period of 6 months, 4 of the 9 rats receiving radiation only developed severe respiratory distress and were euthanized. In the group of rats treated with radiation plus AEOL 10113, only 1 of the 9 rats developed respiratory distress and was euthanized. Breathing rate data were analyzed on a last observation carried forward (LOCF) data set, in which the last observation for rats euthanized due to respiratory distress was imputed to subsequent weeks. There was a significant (log ranks p=0.0011) delay (approximately 3.4 weeks) in the development of radiation-induced lung injury (assessed by an increase in breathing rate) in animals treated with AEOL 10113 (FIG. 12).\nSix months after radiation all remaining animals were euthanized. At that time, the right upper lung lobe was removed and processed to quantify the extent of lung fibrosis based on hydroxyproline content.\nRadiation-induced lung fibrosis was also assessed using histopathology (FIG. 13B). Lungs were fixed in 10% neutral buffered formalin. Five-micron thick sections were stained with hematoxylin and eosin or Masson trichrome and examined microscopically. Slides were systematically scanned in a microscope using a ×10 objective. Each successive field was individually assessed for severity of interstitial fibrosis and allotted a score of between 0 and 8.\nStudies were performed to evaluate changes in body weight after irradiation and to assess the radioprotective effect of MnTE-2-PyP on radiation-induced pulmonary injury in rats. The body weight and lung function of the animals were measured every two weeks after irradiation in three groups of animals: control, radiation alone and radiation+MnTE-2-PyP. A single dose of 28 Gy was delivered to right hemithorax and 6 mg/kg of MnTE-2-PyP was given daily i.p. for 5 days after irradiation. Unrestrained rats were placed in a 1500 ml whole body plethysmograph tube connected to a pressure transducer for a breathing rate measurements. […] The mean of five measurements was performed on each animal."}, "[2]": {"test_system": "R3230 mammary adenocarcinoma cells in Z-chambers", "test": "Tumor development in Z-chambers", "assay_type": "in vivo, Fisher-344 rats", "conditions": "6 mg/kg i.p. 24 hours before implantation of 2.5 mil./ml cells", "experimental": "FIG. 4. Animals were pretreated with different SOD mimetics (6 mg/kg i.p.) 24 hours before implantation of 2.5 mil./ml R3230 mammary adenocarcinoma cells in Z-chambers.\nThese chambers are constructed from customized plexi-glass rings with internal diameter of 10 mm and have a pore on the side. The two open surfaces are covered by nylon mesh (pore size 180 microns, Millipore, Mass.) and glued to the rings. Fibrinogen (Human fibrinogen, plasminogen depleted, CalBiochem) is prepared in DMEM, Gibco BRL) and a concentration of 4-5 mg/ml is utilized for the studies. Although the Fischer rats used in the study are immune competent, this purified batch of fibrinogen has been recognized to be very well conserved across species lines. It has already been shown that early angiogenic response to human fibrinogen is very similar to rat fibrinogen in fibrin gel chambers. The two different types of fibrinogen have also been tested in the Z-Chambers and no difference was found in angiogenic and healing response. Human fibrinogen was used.\nThe Fibrin Z-Chambers have fibrinogen solution poured inside the chamber through the pore and followed by 2 units of thrombin. […]\nThe Z-Chambers were harvested on day 1 or 12 post surgery. […] The depth of either the tumor tissue (tumor growth) or granulation tissue (wound healing) was measured with calipers on the 4×6 inch print. […]"}},
  "data": [
    {"molecule": "CC[n+]1ccccc1-c1c2nc(c(-c3cccc[n+]3CC)c3ccc([n-]3)c(-c3cccc[n+]3CC)c3nc(c(-c4cccc[n+]4CC)c4ccc1[n-]4)C=C3)C=C2.[Mn+3]", "note": "[Compound 10113, manganese(III)tetrakis(N-ethylpyridinium-2-yl)porphyrin]", "values": [
      {"measurement": "inhibition of tumor growth", "setting": "B16 melanoma tumor; mice with B16 melanoma", "result": "significant inhibition of tumor growth"},
      {"measurement": "Tumor doubling time", "setting": "B16 melanoma tumor; control group 2 days", "result": 4, "unit": "days"},
      {"measurement": "delay in the development of radiation-induced lung injury (increase in breathing rate)", "setting": "[1]; 6 mg/kg/day for 5 days, LOCF, log ranks p=0.0011", "result": "approximately 3.4 weeks"},
      {"measurement": "reduction of the magnitude of the increase in breathing rate at endpoint", "setting": "[1]; 6 mg/kg/day for 5 days, average", "result": 34, "unit": "%"},
      {"measurement": "hydroxyproline content of upper right lobe after radiation", "setting": "[1]; 6 months after 28 Gy, wet and dry lung", "result": "significant reduction (p<0.05)"},
      {"measurement": "recovery of body weight loss after hemithoracic irradiation", "setting": "[1]; 28 Gy, 6 mg/kg daily i.p. for 5 days", "result": "significantly better recovery of the body weight loss"},
      {"measurement": "hydroxyproline content of right upper lobe vs control", "setting": "[1]; AEOL 10113 without radiation", "result": "no differences"},
      {"measurement": "radiation-induced lung fibrosis by histopathology", "setting": "[1]; fibrosis score 0-8, FIG. 13B", "result": "reduced radiation-induced lung fibrosis"},
      {"measurement": "rats that developed respiratory distress and were euthanized", "setting": "[1]; of 9 rats, radiation plus AEOL 10113, 6 months, radiation only 4 of 9", "result": 1},
      {"measurement": "tumor development", "setting": "[2]", "result": "Significant (p<0.01) inhibition of tumor development"}
    ]}
  ]
}
